Measurements from patent publication US20210062263A1, “A CLINICAL […]” (priority 2016, published 2021).

Legend:
[1] = Serum testosterone levels (RIA) in wounded male mice with testosterone implants; format: in vivo; settings: for Serum Testosterone: Castrated + T males
Experimental: Six to nine week-old male Balb/cJASMU mice obtained from the Monash University Animal Services, Monash University, Clayton, Victoria, Australia, were housed prior to and during experiments under the following conditions: temperature range 21° C. to 24° C.; light cycle 12 hours light: 12 hours dark. All mice had access to food and water ad libitum.
Six week-old male mice were castrated under anesthesia three weeks prior to the studies on wound healing. The testes were gently pushed through the inguinal canal into the abdominal cavity and exposed through a small (0.5 cm) ventral midline abdominal incision. Each testis was gently dissected from its epididymis and removed after ligation of the testicular vasculature. All incisions were closed using two interrupted 5/0 silk sutures (Johnson & Johnson Medical, NSW, Australia).
(§1) Implants were prepared by cutting medical grade Silastic (polydimethylsiloxane) tubing (1.5 mm inner diameter, 2.3 mm outer diameter, Aunet Pty Ltd, WA, Australia) to the desired length (1 cm long) and sealing one end with Multi-Purpose Sealant (Dow Corning RTV Sealant). After 24 hours each tube was packed with either crystalline testosterone (Sigma #T-1500) or left empty (vehicle implant). The open end was then sealed and implants were allowed to dry for at least 24 hours prior to surgical implantation. The implant size was considered to be the length of tubing containing testosterone. Prior to subcutaneous insertion, implants were sterilized in absolute ethanol for 10 minutes which also removed any androgen adhering to its external surface. Each testosterone or vehicle implant was inserted subcutaneously via a 5-mm nape incision in intact and castrated male mice three weeks before the wound healing experiments and the incision site was closed with 5/0 sutures.
(§2) Under anesthesia, the dorsal flanks of each 9 weeks old mouse (n=6/group) were carefully shaved and cleansed with 70% v/v ethanol. To create wounds, full-thickness, parasagittal linear incisions (1 cm long) were made through the skin and underlying the panniculus carnosus muscle on each flank and each wound was closed using two 5/0 silk sutures placed 3 mm from each end of the wound. Post operatively, all animals received analgesia to minimize pain, were allowed to recover on a heated pad and then housed in groups of four animals per cage. Incisions were examined and assessed on days 3, 5, 7 and post-wounding.
(§3) Blood samples were collected between 10:00 and 10:30 am by cardiac puncture at different time points (0d, 3d, 5d, 7d or 14d) according to the experimental protocol. The samples were allowed to coagulate for 30 minutes then centrifuged at 10,000 g for 10 minutes to collect serum which was stored at −20° C. until assayed.
Serum testosterone levels were measured using a direct radioimmunoassay (RIA) testosterone kit (IM1119—Immunotech, Marseilles, France) according to the manufacturer's instructions, using I^125-labeled testosterone as a radioactive tracer. The antibody used in the immunoassay is highly specific for testosterone with extremely low cross-reactivity (<0.75%) for related molecules such as 5a-dihydrotestosterone or […]. The assay sensitivity for serum testosterone was 15.63 pg/ml and the intra-assay variation was 7.9%. All samples from one experiment were measured in the same assay.

activin A [2] = assay: Serum activin A levels (ELISA) in wounded male mice; format: in vivo
Experimental: as §1, §2, §3
Activin A levels were measured in serum and skin using a specific ELISA and human recombinant activin A as a standard, according to manufacturer's instructions (Oxford Bioinnovations, Cherwell, Oxfordshire, UK) [Knight et al. (1996) J Endocrinol 148(2):267-279]. The assay sensitivity for serum activin A was 11 pg/ml, with an intra-assay variation of 4.6-7.5% and an inter-assay variation of 10.6%.

activin A [3] = assay: Cutaneous activin A levels (ELISA) after wounding; format: in vivo, mice; settings: testosterone replacement, day 3 post-wounding
Description: as §2
Following exsanguination, anesthetized animals were killed by cervical dislocation. Full-thickness specimens of the skin wound, consisting of the entire wound scar surrounded by a border of about 3-mm, were excized and bisected. Half of each sample was frozen at −80° C. and the other half was fixed in 4% v/v paraformaldehyde (Sigma-Aldrich, NSW, Australia) and processed for histology. Unwounded skin was obtained from the dorsum of the trunk near the tail of each animal to determine protein levels. […]
Activin A levels were measured in serum and skin using a specific ELISA and human recombinant activin A as a standard, according to manufacturer's instructions (Oxford Bioinnovations, Cherwell, Oxfordshire, UK) [Knight et al. (1996) J Endocrinol 148(2):267-279]. […]

CD45+ cells = assay: Immunohistochemical analysis of leukocyte infiltration (CD45+ cells); format: in vivo, mice
Description: CD45, also known as leukocyte common antigen (LCA), was used to detect infiltrating leukocytes as a marker of inflammation (Hermiston et al. (2003) Annul Rev Immunol 21:107-137). Five micron thick sections were cut and placed on Menzel-Glaser Polysine (Registered Trade Mark) slides (Thermo Scientific), air-dried and stored at room temperature. Slides were stained using an automated system (DAKO Autostainer Plus), at room temperature; sections were rehydrated and antigen retrieved with the Dako buffers citrate pH6.1. Slides were peroxidase-blocked in 3% v/v hydrogen peroxide (H2O2) in methanol for 10 mins. They were then blocked with CAS-Block (Invitrogen, CA, USA) for 10 minutes, and then incubated with primary antibody (CD45 biotinylated rat anti-mouse antibody, 1:200) for 20 min. Vectastain ABC kit (Vector Labs, Burlingame, Calif.) was subsequently applied for 30 minutes and further colorimetric detection was completed with diaminobenzidine (DAB) for 5 minutes. Sections were counterstained with haematoxylin and slides coverslipped under DePeX.
Leukocyte infiltration was assessed by calculating the average number of CD45+ cells in four random high-power fields (HPF) per tissue section from each group. Data presented reflect the mean total cell count per field from the wound area at days 3 and 5 post-wounding.

TNF-α = assay: Cutaneous TNF-α levels (ELISA) after wounding; format: in vivo, mice
Experimental: Frozen samples of wounded and unwounded skin were homogenized (Janke & Kunkel Ultraturrax T25 homogenizer, IKA Labortechnik, Staufen, Germany) in 1% v/v protease inhibitor (Calbiochem, San Diego, Calif.) and the homogenates were centrifuged at 4° C. to remove debris prior to assay.
Cutaneous levels of IL-6 and TNF-α were measured in skin samples using ELISAs according to the manufacturer's instructions (R&D Systems Inc, MN, USA). The sensitivity of the IL-6 ELISA was 5.97 pg/ml; the intra-assay variation was of 3.4% and the inter-assay variation was 4.1%. Mouse recombinant was used as a standard for the TNF-α assay; the sensitivity of the ELISA was 9.04 pg/ml; the intra-assay variation was of 12.8% and the inter-assay variation was 12.7%. The concentrations are expressed per mg of tissue (wet weight).

SMILES: C[C@]12CC[C@H]3[C@@H](CCC4=CC(=O)CC[C@@]43C)[C@@H]1CC[C@@H]2O [testosterone]
- Serum Testosterone ([1]; 0 d): 5.7 ± 0.8 ng/mL
- Serum Testosterone ([1]; 3 d): 5.4 ± 0.5 ng/mL
- Serum Testosterone ([1]; 5 d): 5.9 ± 0.4 ng/mL
- Serum Testosterone ([1]; 7 d): 5.2 ± 0.5 ng/mL
- Serum Testosterone ([1]; 14 d): 4.5 ± 0.1 ng/mL
- serum testosterone levels (in words) ([1]; castrated males, testosterone replacement): back to control levels
- concentration at 0 d ([1]; male, Balb/cJASMU, mouse, serum, subcutaneous, 1 cm Silastic implant packed with crystalline testosterone, Intact + T males, 0 d): 5.3 ± 0.4 ng/mL
- concentration at 3 d ([1]; male, Balb/cJASMU, mouse, serum, subcutaneous, 1 cm Silastic implant packed with crystalline testosterone, Intact + T males, 3 d): 5.9 ± 0.4 ng/mL
- concentration at 5 d ([1]; male, Balb/cJASMU, mouse, serum, subcutaneous, 1 cm Silastic implant packed with crystalline testosterone, Intact + T males, 5 d): 7.8 ± 0.9 ng/mL
- concentration at 7 d ([1]; male, Balb/cJASMU, mouse, serum, subcutaneous, 1 cm Silastic implant packed with crystalline testosterone, Intact + T males, 7 d): 6.7 ± 0.4 ng/mL
- concentration at 14 d ([1]; male, Balb/cJASMU, mouse, serum, subcutaneous, 1 cm Silastic implant packed with crystalline testosterone, Intact + T males, 14 d): 6.3 ± 0.3 ng/mL
- Serum Activin A (activin A [2]; Castrated + T males, 0 d): 80.2 ± 7.8 pg/mL
- Serum Activin A (activin A [2]; Castrated + T males, 3 d): 65.4 ± 5.8 pg/mL
- Serum Activin A (activin A [2]; Castrated + T males, 5 d): 54.9 ± 7.7 pg/mL
- Serum Activin A (activin A [2]; Castrated + T males, 7 d): 83.8 ± 7.3 pg/mL
- Serum Activin A (activin A [2]; Castrated + T males, 14 d): 93 ± 7.7 pg/mL
- Serum Activin A (activin A [2]; Intact + T males, 0 d): 65.4 ± 6.8 pg/mL
- Serum Activin A (activin A [2]; Intact + T males, 3 d): 85.2 ± 5 pg/mL
- Serum Activin A (activin A [2]; Intact + T males, 5 d): 74.9 ± 6.9 pg/mL
- Serum Activin A (activin A [2]; Intact + T males, 7 d): 92.1 ± 3.8 pg/mL
- Serum Activin A (activin A [2]; Intact + T males, 14 d): 74.6 ± 3.5 pg/mL
- serum activin levels (in words) (activin A [2]; castrated males, testosterone replacement vs castrated+Vh, days 3 and 5 post wounding): decreased serum activin levels
- increase in cutaneous levels of activin A (activin A [3]; castrated males): 17 fold
- cutaneous levels of activin A relative to castrated males (activin A [3]): twice
- number of CD45+ cells (CD45+ cells; castrated group with testosterone replaced vs castrated group, days 3 and 5 post-wounding): significantly increased
- leukocyte migration and infiltration to the wound site (summary) (CD45+ cells; male mice): increased migration and infiltration of leukocytes
- TNF-α skin levels (TNF-α; castrated males, testosterone replaced vs castrated males, days 5 and 7): significantly higher
- TNF-α skin levels (TNF-α; castrated males, testosterone replaced, day 7 post-wounding): significantly increased
- TNF-α skin levels (TNF-α; intact males given testosterone vs intact group, day 3 post-wounding): significantly increased
